{"source": "paper PMC11603075", "about": "(Communications Biology, 2024)", "molecular_target": "T1, KDM5C (Homo sapiens, UniProt P41229)", "T1 construct": "KDM5C 1– 765; made in house; host or cells: Sf9 cells", "T1 sequence (P41229 1-765)": "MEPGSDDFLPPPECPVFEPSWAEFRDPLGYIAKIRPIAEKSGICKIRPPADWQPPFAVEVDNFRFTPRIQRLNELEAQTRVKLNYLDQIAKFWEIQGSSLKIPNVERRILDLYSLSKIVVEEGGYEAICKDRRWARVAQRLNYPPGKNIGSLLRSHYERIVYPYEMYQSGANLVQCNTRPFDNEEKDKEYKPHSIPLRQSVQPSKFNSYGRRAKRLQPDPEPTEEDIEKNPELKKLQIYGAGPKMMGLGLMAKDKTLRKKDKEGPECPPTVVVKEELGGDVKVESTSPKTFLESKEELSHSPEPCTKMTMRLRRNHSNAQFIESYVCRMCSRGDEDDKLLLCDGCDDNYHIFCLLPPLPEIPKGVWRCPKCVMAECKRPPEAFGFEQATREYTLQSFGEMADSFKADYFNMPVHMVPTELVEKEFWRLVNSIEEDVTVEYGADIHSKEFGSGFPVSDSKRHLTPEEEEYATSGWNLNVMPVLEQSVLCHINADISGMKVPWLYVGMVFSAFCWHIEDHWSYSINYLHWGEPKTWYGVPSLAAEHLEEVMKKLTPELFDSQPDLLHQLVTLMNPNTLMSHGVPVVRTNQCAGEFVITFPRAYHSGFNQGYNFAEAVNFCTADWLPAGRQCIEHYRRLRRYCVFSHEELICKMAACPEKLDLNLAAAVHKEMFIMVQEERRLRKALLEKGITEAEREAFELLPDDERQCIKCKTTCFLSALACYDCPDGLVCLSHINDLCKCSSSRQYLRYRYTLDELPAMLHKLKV", "test": "MALDI–TOF MS time course / specific activity, KDM5C", "assay_type": "biochemical", "conditions": "for specific activity: KDM5C", "description": "MS-based screening assays with peptides and calf thymus histones were as reported; see Supplementary Table 6 for conditions. Time course assays were based on reported procedures. In brief, equal volumes of the enzyme and substrate solutions were combined to initiate the reaction; 10 µL of 2% (v/v) formic acid (HCOOH) in ddH2O or 100% methanol was added to 10 µL of the reaction mixture to quench reactions at different time points. Unless otherwise stated, time course assays were carried out in triplicate. In some cases, LC–MS was used instead of MALDI-TOF MS to avoid a MALDI matrix induced artefact with the hydroxylated product (Supplementary Fig. 16).\nData collected from time course assay(s) were used to plot the % conversion vs time (min) using GraphPad Prism5 version 5.04; the resultant slopes were used to fit a line with linear regression to the first-order region of the reaction. The resultant gradient was then converted from % product formation min^−1 to amount of peptide converted (demethylation and / or hydroxylation) in µM.\nSupplementary Figure 4 Activity of KDM5C (black circles) with H2a(1–20)R3me2a is greater than that of KDM4E (white circles). (a) A MALDI–TOF MS time course graph of product formation (%) of KDM4E ( −14 Da/+16 Da) and KDM5C (−14 Da) reaction with H2a(1–20)R3me2a versus time (minutes). ~60% substrate depletion was reached after 105 minutes with KDM4E; ~95% of H2a(1–20)R3me2a was demethylated after 1 05 minut e s wit h K DM5 C. (b ) Comparison of specific activities of KDM4E with H2a(1–20)R3me2a (0.15 […]\nbars; +/- SD; n = 3 (independent assays). See Supplementary Table 6 for assay condit ions.\n(also on this page, place not known: 105 minutes KDM5C. (b) H2a(1 –20)R3me2a with conditions. specific activity (pmol·min-1·μM-1))\n(1 picture or pasted object on this page, not shown here)\n[ E nz ym e] [Peptide] [2OG] [Ascorbate] [(NH4)2F e(S O4)2] [TCEP] Buffer pH7.5 Enzyme Cognate substrate (mM) (mM) (mM) (mM) (mM) (mM) [HE PE S]\nSupplementary Table 6 Summary of MS assay conditions for substrate screening. These conditions enabled efficient turnover of established substrates. Reactions were carried out at 37 °C unless otherwise st ated. […]"}
{"substance": "Ac - SGR [ me 2a ] GKQ GGKAR AKAKT R SSR [H2a(1–20)R3me2a, H2a(1–20)R3me2a without a biotin tag]", "values": [{"measurement": "product formation (−14 Da)", "setting": "0 min, replicate 1", "value": 0, "unit": "%"}, {"measurement": "product formation (−14 Da)", "setting": "0 min, replicate 2", "value": 0, "unit": "%"}, {"measurement": "product formation (−14 Da)", "setting": "0 min, replicate 3", "value": 0, "unit": "%"}, {"measurement": "product formation (−14 Da)", "setting": "5 min, replicate 1", "value": -4.611, "unit": "%"}, {"measurement": "product formation (−14 Da)", "setting": "5 min, replicate 2", "value": 1.214, "unit": "%"}, {"measurement": "product formation (−14 Da)", "setting": "5 min, replicate 3", "value": 6.766, "unit": "%"}, {"measurement": "product formation (−14 Da)", "setting": "15 min, replicate 1", "value": 6.633, "unit": "%"}, {"measurement": "product formation (−14 Da)", "setting": "15 min, replicate 2", "value": 6.871, "unit": "%"}, {"measurement": "product formation (−14 Da)", "setting": "15 min, replicate 3", "value": 19.5603, "unit": "%"}, {"measurement": "product formation (−14 Da)", "setting": "30 min, replicate 1", "value": 38.5829, "unit": "%"}, {"measurement": "product formation (−14 Da)", "setting": "30 min, replicate 3", "value": 44.7254, "unit": "%"}, {"measurement": "product formation (−14 Da)", "setting": "45 min, replicate 1", "value": 64.1732, "unit": "%"}, {"measurement": "product formation (−14 Da)", "setting": "45 min, replicate 2", "value": 64.8428, "unit": "%"}, {"measurement": "product formation (−14 Da)", "setting": "45 min, replicate 3", "value": 72.262, "unit": "%"}, {"measurement": "product formation (−14 Da)", "setting": "60 min, replicate 1", "value": 81.9609, "unit": "%"}, {"measurement": "product formation (−14 Da)", "setting": "60 min, replicate 2", "value": 81.6263, "unit": "%"}, {"measurement": "product formation (−14 Da)", "setting": "60 min, replicate 3", "value": 82.8852, "unit": "%"}, {"measurement": "product formation (−14 Da)", "setting": "75 min, replicate 1", "value": 85.9119, "unit": "%"}, {"measurement": "product formation (−14 Da)", "setting": "75 min, replicate 2", "value": 87.0734, "unit": "%"}, {"measurement": "product formation (−14 Da)", "setting": "75 min, replicate 3", "value": 90.3242, "unit": "%"}, {"measurement": "product formation (−14 Da)", "setting": "90 min, replicate 1", "value": 92.0497, "unit": "%"}, {"measurement": "product formation (−14 Da)", "setting": "90 min, replicate 2", "value": 90.1323, "unit": "%"}, {"measurement": "product formation (−14 Da)", "setting": "90 min, replicate 3", "value": 97.0348, "unit": "%"}, {"measurement": "product formation (−14 Da)", "setting": "105 min, replicate 1", "value": 95.3885, "unit": "%"}, {"measurement": "product formation (−14 Da)", "setting": "105 min, replicate 2", "value": 93.3144, "unit": "%"}, {"measurement": "product formation (−14 Da)", "setting": "105 min, replicate 3", "value": 100, "unit": "%"}, {"measurement": "specific activity", "setting": "mean of n = 3, SD 0.006", "value": 0.37, "unit": "pmol min^−1 µM^−1"}, {"measurement": "specific activity", "setting": "repeat 1", "value": "0.3803 pmol·min-1·μM-1"}, {"measurement": "specific activity", "setting": "repeat 2", "value": "0.3775 pmol·min-1·μM-1"}, {"measurement": "specific activity", "setting": "repeat 3", "value": "0.3654 pmol·min-1·μM-1"}, {"measurement": "RDM activity of KDM5C relative to KDM4E (times)", "setting": "ratio of specific activities", "value": 2.5, "unit": "times"}]}
